Tests used:
Format in all cases: biochemical
PI3Kγ = molecular target: T1, PI3Kγ (Homo sapiens, UniProt P48736); test: TR-FRET enzymatic activity assay, PI3Kγ; settings: recombinant heterodimeric PI3Kγ 2 nM, 2× Km ATP, 30 minutes at 25°C
T1 construct: made in house
Procedure, shortened: (§1)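 Enzymatic activity against the PI3K isoforms was measured using a time-resolved fluorescence resonance energy transfer (TR-FRET) assay.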

PI3Kβ = molecular target: T2, PI3Kβ (Homo sapiens, UniProt P42338); test: TR-FRET enzymatic activity assay, PI3Kβ; settings: for IC50: recombinant heterodimeric PI3Kβ 25-50 pM, 2× Km ATP, 30 minutes at 25°C; for PI3Kγ/PI3Kβ ratio: ratio of IC50 values
T2 construct: made in house
Procedure, shortened: as §1

PI3Kδ = molecular target: T3, PI3Kδ (Homo sapiens, UniProt O00329); test: TR-FRET enzymatic activity assay, PI3Kδ; settings: recombinant heterodimeric PI3Kδ 25-50 pM, 2× Km ATP, 30 minutes at 25°C
T3 construct: made in house
Procedure, shortened: as §1

T3 sequence (O00329 whole entry): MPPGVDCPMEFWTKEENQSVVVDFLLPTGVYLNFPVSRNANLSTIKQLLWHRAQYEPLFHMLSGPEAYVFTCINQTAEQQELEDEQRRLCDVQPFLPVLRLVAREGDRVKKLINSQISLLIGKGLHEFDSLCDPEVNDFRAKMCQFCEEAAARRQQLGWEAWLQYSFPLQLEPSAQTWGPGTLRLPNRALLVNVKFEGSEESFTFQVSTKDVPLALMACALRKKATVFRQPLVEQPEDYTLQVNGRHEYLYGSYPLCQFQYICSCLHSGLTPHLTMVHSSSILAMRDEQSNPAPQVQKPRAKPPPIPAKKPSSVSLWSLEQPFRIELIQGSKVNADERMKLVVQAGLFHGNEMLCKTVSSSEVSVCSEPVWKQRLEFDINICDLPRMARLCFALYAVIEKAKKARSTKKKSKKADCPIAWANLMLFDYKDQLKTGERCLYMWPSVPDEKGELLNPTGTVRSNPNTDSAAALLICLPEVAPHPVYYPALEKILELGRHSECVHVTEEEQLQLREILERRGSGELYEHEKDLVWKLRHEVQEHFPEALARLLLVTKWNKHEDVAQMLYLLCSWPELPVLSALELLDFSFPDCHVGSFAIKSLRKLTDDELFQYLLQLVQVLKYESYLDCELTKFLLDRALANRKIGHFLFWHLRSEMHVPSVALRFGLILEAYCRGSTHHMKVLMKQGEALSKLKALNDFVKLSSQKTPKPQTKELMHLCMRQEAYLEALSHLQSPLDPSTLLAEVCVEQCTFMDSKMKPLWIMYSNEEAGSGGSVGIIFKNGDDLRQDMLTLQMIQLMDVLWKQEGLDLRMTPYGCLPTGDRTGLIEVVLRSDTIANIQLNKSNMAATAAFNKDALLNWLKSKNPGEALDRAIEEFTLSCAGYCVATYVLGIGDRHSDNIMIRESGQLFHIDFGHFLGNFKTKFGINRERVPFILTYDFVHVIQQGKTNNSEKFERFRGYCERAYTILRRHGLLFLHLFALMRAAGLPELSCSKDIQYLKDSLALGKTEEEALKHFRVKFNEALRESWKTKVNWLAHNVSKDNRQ
T3 sequence (P27986 whole entry partner): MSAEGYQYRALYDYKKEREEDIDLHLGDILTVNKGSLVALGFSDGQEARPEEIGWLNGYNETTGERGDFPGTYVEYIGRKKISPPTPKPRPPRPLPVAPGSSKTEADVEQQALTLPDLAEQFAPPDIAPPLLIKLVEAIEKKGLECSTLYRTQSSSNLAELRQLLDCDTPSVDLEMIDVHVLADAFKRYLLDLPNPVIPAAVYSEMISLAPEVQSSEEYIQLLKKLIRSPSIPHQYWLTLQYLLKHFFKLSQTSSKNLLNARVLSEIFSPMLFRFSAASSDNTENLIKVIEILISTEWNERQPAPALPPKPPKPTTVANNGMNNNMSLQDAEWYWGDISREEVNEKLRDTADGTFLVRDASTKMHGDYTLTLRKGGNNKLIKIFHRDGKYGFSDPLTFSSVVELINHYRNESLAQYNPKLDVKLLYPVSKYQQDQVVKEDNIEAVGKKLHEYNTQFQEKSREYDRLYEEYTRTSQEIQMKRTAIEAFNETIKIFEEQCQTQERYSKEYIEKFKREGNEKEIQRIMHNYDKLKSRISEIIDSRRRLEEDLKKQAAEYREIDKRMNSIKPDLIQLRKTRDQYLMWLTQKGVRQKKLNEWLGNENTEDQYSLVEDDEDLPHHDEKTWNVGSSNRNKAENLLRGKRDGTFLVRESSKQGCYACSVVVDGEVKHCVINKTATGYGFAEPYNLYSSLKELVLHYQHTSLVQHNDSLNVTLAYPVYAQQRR
T2 sequence (P42338 whole entry): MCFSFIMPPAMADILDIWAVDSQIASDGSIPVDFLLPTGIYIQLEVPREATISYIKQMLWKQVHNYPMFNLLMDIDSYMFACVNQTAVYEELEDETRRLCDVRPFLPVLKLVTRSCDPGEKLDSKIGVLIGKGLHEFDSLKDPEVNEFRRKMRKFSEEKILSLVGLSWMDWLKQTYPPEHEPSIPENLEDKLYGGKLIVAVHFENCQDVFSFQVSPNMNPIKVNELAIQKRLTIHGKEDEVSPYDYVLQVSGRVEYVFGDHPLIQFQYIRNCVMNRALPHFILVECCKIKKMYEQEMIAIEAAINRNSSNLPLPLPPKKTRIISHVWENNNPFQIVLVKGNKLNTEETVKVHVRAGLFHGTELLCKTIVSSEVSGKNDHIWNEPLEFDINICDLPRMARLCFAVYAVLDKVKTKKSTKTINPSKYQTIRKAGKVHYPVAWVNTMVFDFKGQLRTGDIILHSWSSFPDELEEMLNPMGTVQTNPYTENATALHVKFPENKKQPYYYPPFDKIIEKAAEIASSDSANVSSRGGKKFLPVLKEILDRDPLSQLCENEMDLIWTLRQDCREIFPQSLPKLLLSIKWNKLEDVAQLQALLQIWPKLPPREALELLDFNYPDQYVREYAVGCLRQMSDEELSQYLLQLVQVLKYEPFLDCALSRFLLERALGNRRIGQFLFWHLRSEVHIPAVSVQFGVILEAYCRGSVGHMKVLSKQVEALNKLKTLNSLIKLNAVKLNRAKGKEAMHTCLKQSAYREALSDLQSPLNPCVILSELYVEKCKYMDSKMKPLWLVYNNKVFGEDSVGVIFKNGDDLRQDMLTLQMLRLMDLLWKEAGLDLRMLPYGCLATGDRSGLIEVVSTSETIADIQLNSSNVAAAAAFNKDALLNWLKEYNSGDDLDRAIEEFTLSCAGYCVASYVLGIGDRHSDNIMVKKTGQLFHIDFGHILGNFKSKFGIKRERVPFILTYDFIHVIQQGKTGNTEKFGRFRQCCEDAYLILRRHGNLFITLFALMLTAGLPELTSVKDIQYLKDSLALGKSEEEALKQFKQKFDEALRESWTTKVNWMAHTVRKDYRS
T2 sequence (P27986 whole entry partner): as the sequence (P27986 whole entry partner) above
T1 sequence (P48736 whole entry): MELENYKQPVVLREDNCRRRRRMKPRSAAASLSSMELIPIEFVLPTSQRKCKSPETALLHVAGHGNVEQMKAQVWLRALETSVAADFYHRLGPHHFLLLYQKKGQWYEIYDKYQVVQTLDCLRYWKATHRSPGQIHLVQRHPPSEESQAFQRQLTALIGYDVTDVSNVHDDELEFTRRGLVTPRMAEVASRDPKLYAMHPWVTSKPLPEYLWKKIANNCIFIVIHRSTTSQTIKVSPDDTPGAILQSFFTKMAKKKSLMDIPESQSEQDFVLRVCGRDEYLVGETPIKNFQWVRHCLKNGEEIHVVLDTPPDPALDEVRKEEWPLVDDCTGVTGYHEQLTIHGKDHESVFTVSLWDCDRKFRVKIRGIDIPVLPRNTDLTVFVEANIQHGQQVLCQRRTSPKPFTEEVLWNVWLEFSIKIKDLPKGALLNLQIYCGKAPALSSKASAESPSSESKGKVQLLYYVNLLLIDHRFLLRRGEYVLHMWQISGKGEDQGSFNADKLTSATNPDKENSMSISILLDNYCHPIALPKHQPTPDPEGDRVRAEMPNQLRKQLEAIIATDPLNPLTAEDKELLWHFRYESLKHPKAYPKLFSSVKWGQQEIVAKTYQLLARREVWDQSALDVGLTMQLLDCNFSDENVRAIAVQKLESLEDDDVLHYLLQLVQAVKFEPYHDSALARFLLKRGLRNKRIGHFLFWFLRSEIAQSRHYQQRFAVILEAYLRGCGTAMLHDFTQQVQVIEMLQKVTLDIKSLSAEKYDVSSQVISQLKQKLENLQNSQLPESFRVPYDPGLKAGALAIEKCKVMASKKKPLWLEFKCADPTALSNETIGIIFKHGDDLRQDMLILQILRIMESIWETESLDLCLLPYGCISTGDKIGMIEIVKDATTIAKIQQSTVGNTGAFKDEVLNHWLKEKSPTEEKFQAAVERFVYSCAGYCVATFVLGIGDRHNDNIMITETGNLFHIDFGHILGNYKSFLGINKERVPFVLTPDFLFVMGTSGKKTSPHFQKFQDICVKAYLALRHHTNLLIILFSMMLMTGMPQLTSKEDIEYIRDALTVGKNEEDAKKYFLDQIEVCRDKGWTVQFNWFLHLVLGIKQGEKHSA
T1 sequence (Q8WYR1 whole entry partner): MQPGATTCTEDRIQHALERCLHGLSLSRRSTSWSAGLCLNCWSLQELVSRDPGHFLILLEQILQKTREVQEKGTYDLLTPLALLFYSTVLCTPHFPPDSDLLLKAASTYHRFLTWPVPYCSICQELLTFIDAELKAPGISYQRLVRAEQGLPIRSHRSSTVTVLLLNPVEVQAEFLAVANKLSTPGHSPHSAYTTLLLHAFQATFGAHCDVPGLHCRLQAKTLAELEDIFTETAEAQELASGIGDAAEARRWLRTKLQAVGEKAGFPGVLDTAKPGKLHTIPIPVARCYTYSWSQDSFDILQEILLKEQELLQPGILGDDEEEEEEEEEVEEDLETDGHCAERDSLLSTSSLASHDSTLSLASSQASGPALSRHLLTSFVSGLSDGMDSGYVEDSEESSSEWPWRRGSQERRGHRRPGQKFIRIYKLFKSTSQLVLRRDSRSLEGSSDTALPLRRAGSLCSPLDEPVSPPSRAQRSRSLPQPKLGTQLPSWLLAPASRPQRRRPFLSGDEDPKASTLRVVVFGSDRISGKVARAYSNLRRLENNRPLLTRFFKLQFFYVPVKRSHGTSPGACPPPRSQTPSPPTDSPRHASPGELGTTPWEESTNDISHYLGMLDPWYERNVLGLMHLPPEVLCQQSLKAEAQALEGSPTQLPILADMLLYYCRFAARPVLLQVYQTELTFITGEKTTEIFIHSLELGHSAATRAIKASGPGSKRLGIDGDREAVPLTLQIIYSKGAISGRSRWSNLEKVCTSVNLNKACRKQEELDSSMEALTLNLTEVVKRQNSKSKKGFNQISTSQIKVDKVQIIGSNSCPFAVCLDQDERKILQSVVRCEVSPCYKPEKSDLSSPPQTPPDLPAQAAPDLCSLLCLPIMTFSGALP

Structure (SMILES) | IC50 (PI3Kγ) [nM] | IC50 (PI3Kβ) [nM] | IC50 (PI3Kδ) [nM] | PI3Kγ/PI3Kβ ratio (PI3Kβ) | PI3Kγ/PI3Kβ ratio (PI3Kβ; as stated in b147)
C[C@H](Nc1ncnc(N)c1C#Cc1ccc(F)cn1)c1nc2cccc(Cl)c2c(=O)n1N1CCNCC1 [Compound 58, (S)-2-(1-((6-amino-5-((5-fluoropyridin-2-yl)ethynyl)pyrimidin-4-yl)amino)ethyl)-5-chloro-3-(piperazin-1-yl)quinazolin-4(3H)-one] | > 10000 | 10 | 2 | – | –
C[C@H](Nc1ncnc(N)c1Cl)c1nc2cccc(Cl)c2c(=O)n1N1CCNCC1 [Compound 37, (S)-2-(1-((6-amino-5-chloropyrimidin-4-yl)amino)ethyl)-5-chloro-3-(piperazin-1-yl)quinazolin-4(3H)-one] | > 10000 | 39 | 3 | – | –
C[C@H](Nc1ncnc(N)c1C#N)c1nc2cccc(Cl)c2c(=O)n1N1CCN(C)CC1 [Compound 5, (S)-4-amino-6-((1-(5-chloro-3-(4-methylpiperazin-1-yl)-4-oxo-3,4-dihydroquinazolin-2-yl)ethyl)amino)pyrimidine-5-carbonitrile] | > 10000 | 190 | 19 | – | –
C[C@H](Nc1ncnc2scnc12)c1nc2c(Cl)ccc(Cl)c2c(=O)n1N1CCNCC1 [Compound 49, (S)-5,8-dichloro-3-(piperazin-1-yl)-2-(1-(thiazolo[5,4-d]pyrimidin-7-ylamino)ethyl)quinazolin-4(3H)-one] | > 10000 | 19 | 2 | – | –
C[C@H](Nc1nc(N)nc(N)c1C#N)c1nc2cccc(Cl)c2c(=O)n1-c1ccccc1 [Compound X, (S)-2,4-diamino-6-((1-(5-chloro-4-oxo-3-phenyl-3,4-dihydroquinazolin-2-yl)ethyl)amino)pyrimidine-5-carbonitrile, reference compound] | 7 | 11 | 0.2 | 0.6 | less than 1 fold
Cc1cccc2nc([C@H](C)Nc3ncnc(N)c3C#N)n(C3CCNCC3)c(=O)c12 [Compound 60, (S)-4-amino-6-((1-(5-methyl-4-oxo-3-(piperidin-4-yl)-3,4-dihydroquinazolin-2-yl)ethyl)amino)pyrimidine-5-carbonitrile] | > 10000 | 130 | 5 | – | –
C[C@H](Nc1ncnc2scc(Cl)c12)c1nc2cccc(Cl)c2c(=O)n1N1CCNCC1 [Compound 35, (S)-5-chloro-2-(1-((5-chlorothieno[2,3-d]pyrimidin-4-yl)amino)ethyl)-3-(piperazin-1-yl)quinazolin-4(3H)-one] | > 10000 | 570 | 93 | – | –
C[C@H](Nc1ncnn2ccnc12)c1nc2c(F)ccc(F)c2c(=O)n1N1CCNCC1 [Compound 40, (S)-5,8-difluoro-2-(1-(imidazo[2,1-f][1,2,4]triazin-4-ylamino)ethyl)-3-(piperazin-1-yl)quinazolin-4(3H)-one] | > 10000 | 200 | 26 | – | –
O=c1c2c(Cl)cccc2nc([C@@H](Nc2ncnn3ccnc23)C2CC2)n1N1CCNCC1 [Compound 43, (S)-5-chloro-2-(cyclopropyl(imidazo[2,1-f][1,2,4]triazin-4-ylamino)methyl)-3-(piperazin-1-yl)quinazolin-4(3H)-one] | > 10000 | 30 | 4 | – | –
C[C@H](Nc1nc(N)nc(N)c1Cl)c1nc2cccc(Cl)c2c(=O)n1[C@@H]1CCCNCC1 [Compound 13, 3-((R)-azepan-4-yl)-5-chloro-2-((S)-1-((2,6-diamino-5-chloropyrimidin-4-yl)amino)ethyl)quinazolin-4(3H)-one] | > 10000 | 180 | 33 | – | –
CC[C@H](Nc1ncnc(N)c1C#N)c1nc2cccc(Cl)c2c(=O)n1N1CCNCC1 [Compound 79, (S)-4-amino-6-((1-(5-chloro-4-oxo-3-(piperazin-1-yl)-3,4-dihydroquinazolin-2-yl)propyl)amino)pyrimidine-5-carbonitrile] | > 10000 | 78 | 7 | – | –
C[C@H](Nc1nc(N)nc(N)c1C#N)c1nc2cccc(Cl)c2c(=O)n1N1CCN(CCOC(C)(C)C)CC1 [Compound 96, (S)-2,4-diamino-6-((1-(3-(4-(2-(tert-butoxy)ethyl)piperazin-1-yl)-5-chloro-4-oxo-3,4-dihydroquinazolin-2-yl)ethyl)amino)pyrimidine-5-carbonitrile] | 1000 | 10 | 15 | – | –

More lines, main results first:

IC50 (PI3Kγ) [nM] | IC50 (PI3Kβ) [nM] | IC50 (PI3Kδ) [nM] | Structure (SMILES) | PI3Kγ/PI3Kβ ratio (PI3Kβ) | PI3Kγ/PI3Kβ ratio (PI3Kβ; as stated in b147)
2900 | 1 | 1 | N#Cc1c(N)nc(N)nc1N[C@H](c1nc2cccc(Cl)c2c(=O)n1N1CCNCC1)C1CC1 [Compound 77, (S)-2,4-diamino-6-(((5-chloro-4-oxo-3-(piperazin-1-yl)-3,4-dihydroquinazolin-2-yl)(cyclopropyl)methyl)amino)pyrimidine-5-carbonitrile] | – | –
1200 | 4 | 5 | C[C@H](Nc1nc(N)nc(N)c1C#N)c1nc2cccc(Cl)c2c(=O)n1N1CCN(CC(C)(C)C)CC1 [Compound 98, (S)-2,4-diamino-6-((1-(5-chloro-3-(4-neopentylpiperazin-1-yl)-4-oxo-3,4-dihydroquinazolin-2-yl)ethyl)amino)pyrimidine-5-carbonitrile] | – | –
860 | 2 | 0.8 | C[C@H](Nc1nc(N)nc(N)c1C#N)c1nc2cccc(Cl)c2c(=O)n1N1CCNC2(CC2)C1 [Compound 7, (S)-2,4-diamino-6-((1-(5-chloro-4-oxo-3-(4,7-diazaspiro[2.5]octan-7-yl)-3,4-dihydroquinazolin-2-yl)ethyl)amino)pyrimidine-5-carbonitrile] | – | –
7400 | 3 | 1 | C[C@H](Nc1ncnc2[nH]cc(Br)c12)c1nc2cccc(Cl)c2c(=O)n1N1CCNCC1 [Compound 69, (S)-2-(1-((5-bromo-7H-pyrrolo[2,3-d]pyrimidin-4-yl)amino)ethyl)-5-chloro-3-(piperazin-1-yl)quinazolin-4(3H)-one] | – | –
630 | 520 | 16 | C[C@H](Nc1nc(N)nc(N)c1C#N)c1nc2cccc(Cl)c2c(=O)n1N1CCN(CC(F)(F)F)CC1 [Compound 107, (S)-2,4-diamino-6-((1-(5-chloro-4-oxo-3-(4-(2,2,2-trifluoroethyl)piperazin-1-yl)-3,4-dihydroquinazolin-2-yl)ethyl)amino)pyrimidine-5-carbonitrile] | – | –
1400 | 41 | 27 | CC[C@H](Nc1nc(N)nc(N)c1C#N)c1nc2cccc(Cl)c2c(=O)n1N1CCN(Cc2ccc(OC)cc2)CC1 [Compound 92, (S)-2,4-diamino-6-((1-(5-chloro-3-(4-(4-methoxybenzyl)piperazin-1-yl)-4-oxo-3,4-dihydroquinazolin-2-yl)propyl)amino)pyrimidine-5-carbonitrile] | – | –
2000 | 52 | 23 | CC[C@H](Nc1nc(N)nc(C)c1C#N)c1nc2cccc(Cl)c2c(=O)n1N1CCN(Cc2ccc(F)cc2)CC1 [Compound 90, (S)-2-amino-4-((1-(5-chloro-3-(4-(4-fluorobenzyl)piperazin-1-yl)-4-oxo-3,4-dihydroquinazolin-2-yl)propyl)amino)-6-methylpyrimidine-5-carbonitrile] | – | –

From patent EP3154958B1, “PHOSPHATIDYLINOSITOL 3-KINASE INHIBITORS” (Gilead Sciences, Inc., priority 2014, dated 2015)
